Measured values as given in ChEMBL document CHEMBL1201862, “PubChem BioAssay data set” (2004).
The source made the active and inactive calls.

What was measured:
[1] = target: T1, Microphthalmia-associated transcription factor (Homo sapiens, UniProt O75030); assay: TRPM1 promoter luciferase signal decrease, dose response, MITF inhibitor project, cell-based, SK-MEL-5, cherry-picked, set 3 (AID 493073); assay type: functional
T1 sequence (O75030 whole entry): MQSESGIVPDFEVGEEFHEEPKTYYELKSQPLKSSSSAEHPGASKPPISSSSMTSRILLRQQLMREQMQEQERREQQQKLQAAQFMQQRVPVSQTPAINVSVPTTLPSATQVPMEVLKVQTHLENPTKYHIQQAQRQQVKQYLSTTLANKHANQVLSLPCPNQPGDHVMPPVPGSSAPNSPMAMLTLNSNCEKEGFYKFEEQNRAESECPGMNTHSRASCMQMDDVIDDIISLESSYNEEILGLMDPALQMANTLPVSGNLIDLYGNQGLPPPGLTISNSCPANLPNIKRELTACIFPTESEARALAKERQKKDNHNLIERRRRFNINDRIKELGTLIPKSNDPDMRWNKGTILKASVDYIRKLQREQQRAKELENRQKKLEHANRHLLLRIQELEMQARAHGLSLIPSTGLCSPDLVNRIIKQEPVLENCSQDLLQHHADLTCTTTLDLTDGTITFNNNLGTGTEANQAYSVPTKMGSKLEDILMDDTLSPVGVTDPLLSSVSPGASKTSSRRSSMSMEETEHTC

INS1 = assay: beta cell apoptosis inhibitors, cytokine rescue, dose response, luminescence, retest (AID 449756); assay type: functional, cell-based; conditions: Rattus norvegicus;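 further: cell death triggered by IL-1 beta plus TNF-alpha plus IFN-gamma mixture; protective hits raise ATP signal compared with cytokine alone wells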
Fatty acid synthase [2] = target: T2, Fatty acid synthase (Homo sapiens, UniProt P49327); assay: FAS thioesterase domain inhibitors, dose response, biochemical, kinetic fluorescence intensity (AID 624326); assay type: functional;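 further: rate of fluorescence rise from hydrolysis of a fluorogenic O-methyl fluorescein ester substrate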
Fatty acid synthase [3] = target: T2, Fatty acid synthase; assay: FAS thioesterase domain inhibitors, dose response, biochemical, endpoint fluorescence intensity, uHTS hits (AID 624327); assay type: functional;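 further: fluorescence from hydrolysis of an O-methyl fluorescein acyl ester substrate by the enzyme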
[4] = C. albicans growth with fluconazole, confirmation, fluorescence, retest (AID 2467); assay type: functional, cell-based
[5] = inhibitors of SNCA 5'UTR-driven reporter translation, confirmation, H4 neuroglioma cells, luminescence (AID 1988); assay type: functional, cell-based
[6] = inhibitors of firefly luciferase expression or activity, dose response, H4 neuroglioma cells, luminescence (AID 1990); assay type: functional, cell-based
[7] = inhibitors of intracellular T. cruzi replication, confirmation, NIH3T3 host cells, beta-gal luminescence (AID 2044); assay type: functional, cell-based;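 further: intracellular parasites grown in NIH/3T3 mouse fibroblasts as host cells; luminescent beta-galactosidase reporter signal from transgenic T. cruzi replicating inside host cells; inhibitors lower the luminescence signal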
[8] = growth suppression of PTEN-null colon cells, dose response, cell-based, HCT116 PTEN knockout (AID 1047); assay type: functional;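 further: HCT116 colon tumor cells with PTEN knocked out; cells exposed to compound for 60 hours before readout; potency for loss of cell viability measured by luminescence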
[9] = NIH-3T3 fibroblast cytotoxicity, dose response, cytotoxicity control, cell-based, fluorescence, Alamar Blue, secondary assay (AID 2327); assay type: functional;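 further: NIH-3T3 mouse fibroblasts cultured with fluconazole at 8 µg/mL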
[10] = target: T3, Replicative DNA helicase DnaB (Mycobacterium tuberculosis, UniProt P9WMR3); assay: DnaB intein splicing inhibitors, dose response, biochemical, cell-free fluorescence (AID 449749); assay type: functional
T3 sequence (P9WMR3 whole entry): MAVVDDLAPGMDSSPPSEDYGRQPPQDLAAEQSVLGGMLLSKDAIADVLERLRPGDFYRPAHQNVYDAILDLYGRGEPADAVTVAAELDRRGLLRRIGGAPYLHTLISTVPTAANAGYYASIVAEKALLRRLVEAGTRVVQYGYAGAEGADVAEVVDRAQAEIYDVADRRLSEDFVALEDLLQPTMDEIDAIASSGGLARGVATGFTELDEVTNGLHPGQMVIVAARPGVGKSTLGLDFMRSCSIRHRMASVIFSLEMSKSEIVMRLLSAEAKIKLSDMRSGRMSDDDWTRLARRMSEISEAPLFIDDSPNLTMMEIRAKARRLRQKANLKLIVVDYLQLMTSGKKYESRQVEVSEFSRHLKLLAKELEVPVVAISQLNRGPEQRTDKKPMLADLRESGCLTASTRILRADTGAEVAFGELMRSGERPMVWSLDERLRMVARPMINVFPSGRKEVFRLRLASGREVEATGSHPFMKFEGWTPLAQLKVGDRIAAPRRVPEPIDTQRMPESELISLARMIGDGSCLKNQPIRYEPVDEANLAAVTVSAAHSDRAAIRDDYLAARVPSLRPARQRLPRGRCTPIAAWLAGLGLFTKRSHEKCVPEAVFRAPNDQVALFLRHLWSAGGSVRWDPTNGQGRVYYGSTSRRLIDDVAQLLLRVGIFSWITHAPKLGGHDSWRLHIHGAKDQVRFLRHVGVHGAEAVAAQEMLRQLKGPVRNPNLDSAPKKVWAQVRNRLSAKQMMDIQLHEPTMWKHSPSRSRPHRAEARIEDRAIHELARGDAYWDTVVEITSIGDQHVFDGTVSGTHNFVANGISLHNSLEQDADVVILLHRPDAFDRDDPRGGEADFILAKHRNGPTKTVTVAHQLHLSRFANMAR

[11] = Luminescence Cell-Based Dose Response HTS to Identify Inhibitors of 5'UTR Stem-Loop Driven Prion Protein mRNA Translation in H4 Neuroglioblastoma Cells. [Related pubchem assays: 1827 (Project Summary), 1813 (Primary HTS)]; assay type: functional
[12] = cytotoxicity toward NIH3T3 fibroblasts, dose response, counter-screen, cell-based, ATP luminescence, mouse fibroblasts (AID 2010); assay type: functional;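 further: cells exposed to compound for about 90 hours before reading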
[13] = growth suppression of beta-catenin-knockout colon cells, dose response, cell-based, HCT116, human colon tumor (AID 1045); assay type: functional;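 further: HCT116 colon tumor cells with beta catenin knocked out; cells exposed to compound for 60 hours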
Protein RecA = target: T4, Protein RecA (Mycobacterium tuberculosis, UniProt P9WHJ3); assay: Fluorescence Cell-Free Homogeneous Dose Retest to Identify Inhibitors of RecA-Intein Splicing Activity. [Related pubchem assays (depositor defined):AID2097, AID2223, AID489010, AID492950]; assay type: functional
T4 sequence (P9WHJ3 whole entry): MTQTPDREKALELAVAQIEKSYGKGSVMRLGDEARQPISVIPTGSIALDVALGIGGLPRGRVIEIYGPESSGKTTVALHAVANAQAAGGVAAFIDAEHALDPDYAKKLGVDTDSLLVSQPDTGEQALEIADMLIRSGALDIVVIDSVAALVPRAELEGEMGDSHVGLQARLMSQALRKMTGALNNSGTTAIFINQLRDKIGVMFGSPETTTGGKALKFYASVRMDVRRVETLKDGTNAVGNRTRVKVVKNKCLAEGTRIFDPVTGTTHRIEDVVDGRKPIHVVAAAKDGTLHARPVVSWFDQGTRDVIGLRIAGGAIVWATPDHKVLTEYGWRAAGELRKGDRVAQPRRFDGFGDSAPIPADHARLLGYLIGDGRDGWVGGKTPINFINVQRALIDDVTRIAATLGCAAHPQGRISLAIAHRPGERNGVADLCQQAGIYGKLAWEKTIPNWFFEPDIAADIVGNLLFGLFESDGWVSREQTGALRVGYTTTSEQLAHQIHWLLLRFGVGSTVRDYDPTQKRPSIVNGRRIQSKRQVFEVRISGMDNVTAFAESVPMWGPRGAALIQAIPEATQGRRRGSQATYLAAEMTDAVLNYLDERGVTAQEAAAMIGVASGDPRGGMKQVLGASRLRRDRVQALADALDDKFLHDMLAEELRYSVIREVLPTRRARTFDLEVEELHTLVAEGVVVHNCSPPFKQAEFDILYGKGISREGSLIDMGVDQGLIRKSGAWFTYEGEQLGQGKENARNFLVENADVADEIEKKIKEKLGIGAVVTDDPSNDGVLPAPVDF

Nonstructural protein 1 = Nonstructural protein 1 (Influenza A virus, UniProt Q194T2); assay type: functional, Influenza A virus (A/California/07/2009(H1N1))
cells [14] = assay type: functional
[15] = target: Glucose-6-phosphate 1-dehydrogenase (Homo sapiens, UniProt P11413); assay: human G6PD enzyme inhibitors, dose response, selectivity assay for P. falciparum G6PD inhibitor project, biochemical, fluorescence (AID 504792); assay type: functional
[16] = target: DNA dC->dU-editing enzyme APOBEC-3G (Homo sapiens, UniProt Q9HC16); assay: Dose Response confirmation of small molecule APOBEC3G DNA Deaminase Inhibitors via a fluorescence-based single-stranded DNA deaminase assay. [Related pubchem assays (depositor defined):AID493012, AID493028]; assay type: functional
[17] = ZM109 Env clade C HIV-1 fusion inhibitors, dose response, HeLa effector, CEM target cells, luciferase, cherry-pick (AID 652058); assay type: functional, cell-based
[18] = target: T5, Corticotropin-releasing factor receptor 2/Corticotropin-releasing factor-binding protein (Homo sapiens, UniProt P24387+Q13324); assay: Dose Response confirmation of uHTS hits for small molecule antagonists of the CRF-binding protein and CRF-R2 receptor complex.; assay type: functional; conditions: read-out: IC50_Mean
T5 sequence (Q13324 whole entry): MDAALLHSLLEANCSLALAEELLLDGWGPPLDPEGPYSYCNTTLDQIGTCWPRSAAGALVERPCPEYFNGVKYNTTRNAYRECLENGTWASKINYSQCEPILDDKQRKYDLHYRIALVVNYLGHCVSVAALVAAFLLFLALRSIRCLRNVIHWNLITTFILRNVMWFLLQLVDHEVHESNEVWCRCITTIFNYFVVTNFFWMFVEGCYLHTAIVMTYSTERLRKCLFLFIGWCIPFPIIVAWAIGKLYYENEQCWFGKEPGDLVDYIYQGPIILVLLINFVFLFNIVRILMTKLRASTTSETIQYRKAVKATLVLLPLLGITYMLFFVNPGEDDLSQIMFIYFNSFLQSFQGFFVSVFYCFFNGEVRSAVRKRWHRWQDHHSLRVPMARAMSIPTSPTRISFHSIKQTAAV
T5 sequence (P24387 whole entry): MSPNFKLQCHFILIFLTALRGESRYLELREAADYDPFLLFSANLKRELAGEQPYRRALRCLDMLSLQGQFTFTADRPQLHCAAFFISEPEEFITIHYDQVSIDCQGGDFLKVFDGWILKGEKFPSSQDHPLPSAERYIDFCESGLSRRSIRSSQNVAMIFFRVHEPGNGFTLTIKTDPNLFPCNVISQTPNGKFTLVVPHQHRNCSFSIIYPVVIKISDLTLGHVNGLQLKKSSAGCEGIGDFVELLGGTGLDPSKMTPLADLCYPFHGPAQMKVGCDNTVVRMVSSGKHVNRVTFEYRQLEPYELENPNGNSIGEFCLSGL

[19] = target: T5, Corticotropin-releasing factor receptor 2/Corticotropin-releasing factor-binding protein; assay: activators of CRF receptor 2 with binding protein – uHTS hits, confirmation (AID 602473); assay type: functional; conditions: read-out: EC50_Mean
SN12K1 = assay: cells; assay type: functional; conditions: Homo sapiens
[20] = HEp-2 cell cytotoxicity, dose response, cytotoxicity control for RSV inhibitor project, HTS (AID 2410); assay type: functional; conditions: human respiratory syncytial virus
cells [21] = assay type: functional, cell-based
[22] = THP-1 cell cytotoxicity, dose response, cytotoxicity control for non-replicating M. tuberculosis project (AID 489025); assay type: functional
[23] = Vero E6 cell cytotoxicity, dose response, cytotoxicity control for non-replicating M. tuberculosis project, secondary assay (AID 492998); assay type: functional, VeroE6; conditions: Vero C1008
cells [24] = assay type: functional, cell-based; remark: listed apart in the source
Paired box protein Pax-8 = Paired box protein Pax-8 (Homo sapiens, UniProt Q06710); assay: inhibitors of PAX8-driven TPO luciferase reporter, dose response, RMG-I cells, cherry-pick (AID 687027); assay type: functional, cell-based;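 further: luciferase reporter driven by Pax8 target thyroperoxidase promoter measured by SteadyGlo luminescence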
Chain of Paired box protein Pax-8 (Q06710 whole entry): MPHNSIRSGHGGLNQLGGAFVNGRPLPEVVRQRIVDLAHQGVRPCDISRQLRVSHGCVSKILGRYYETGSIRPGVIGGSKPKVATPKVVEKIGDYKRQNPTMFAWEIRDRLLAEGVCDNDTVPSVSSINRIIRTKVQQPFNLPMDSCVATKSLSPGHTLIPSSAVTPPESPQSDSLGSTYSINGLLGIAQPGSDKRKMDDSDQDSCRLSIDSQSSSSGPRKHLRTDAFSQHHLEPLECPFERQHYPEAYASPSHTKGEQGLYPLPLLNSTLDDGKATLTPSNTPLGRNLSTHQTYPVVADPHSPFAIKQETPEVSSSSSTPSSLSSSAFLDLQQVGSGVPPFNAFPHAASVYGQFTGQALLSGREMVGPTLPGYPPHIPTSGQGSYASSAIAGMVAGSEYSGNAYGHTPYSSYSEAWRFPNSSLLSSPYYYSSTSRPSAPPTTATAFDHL

T2 sequence (P49327 whole entry, the tested form may be a part): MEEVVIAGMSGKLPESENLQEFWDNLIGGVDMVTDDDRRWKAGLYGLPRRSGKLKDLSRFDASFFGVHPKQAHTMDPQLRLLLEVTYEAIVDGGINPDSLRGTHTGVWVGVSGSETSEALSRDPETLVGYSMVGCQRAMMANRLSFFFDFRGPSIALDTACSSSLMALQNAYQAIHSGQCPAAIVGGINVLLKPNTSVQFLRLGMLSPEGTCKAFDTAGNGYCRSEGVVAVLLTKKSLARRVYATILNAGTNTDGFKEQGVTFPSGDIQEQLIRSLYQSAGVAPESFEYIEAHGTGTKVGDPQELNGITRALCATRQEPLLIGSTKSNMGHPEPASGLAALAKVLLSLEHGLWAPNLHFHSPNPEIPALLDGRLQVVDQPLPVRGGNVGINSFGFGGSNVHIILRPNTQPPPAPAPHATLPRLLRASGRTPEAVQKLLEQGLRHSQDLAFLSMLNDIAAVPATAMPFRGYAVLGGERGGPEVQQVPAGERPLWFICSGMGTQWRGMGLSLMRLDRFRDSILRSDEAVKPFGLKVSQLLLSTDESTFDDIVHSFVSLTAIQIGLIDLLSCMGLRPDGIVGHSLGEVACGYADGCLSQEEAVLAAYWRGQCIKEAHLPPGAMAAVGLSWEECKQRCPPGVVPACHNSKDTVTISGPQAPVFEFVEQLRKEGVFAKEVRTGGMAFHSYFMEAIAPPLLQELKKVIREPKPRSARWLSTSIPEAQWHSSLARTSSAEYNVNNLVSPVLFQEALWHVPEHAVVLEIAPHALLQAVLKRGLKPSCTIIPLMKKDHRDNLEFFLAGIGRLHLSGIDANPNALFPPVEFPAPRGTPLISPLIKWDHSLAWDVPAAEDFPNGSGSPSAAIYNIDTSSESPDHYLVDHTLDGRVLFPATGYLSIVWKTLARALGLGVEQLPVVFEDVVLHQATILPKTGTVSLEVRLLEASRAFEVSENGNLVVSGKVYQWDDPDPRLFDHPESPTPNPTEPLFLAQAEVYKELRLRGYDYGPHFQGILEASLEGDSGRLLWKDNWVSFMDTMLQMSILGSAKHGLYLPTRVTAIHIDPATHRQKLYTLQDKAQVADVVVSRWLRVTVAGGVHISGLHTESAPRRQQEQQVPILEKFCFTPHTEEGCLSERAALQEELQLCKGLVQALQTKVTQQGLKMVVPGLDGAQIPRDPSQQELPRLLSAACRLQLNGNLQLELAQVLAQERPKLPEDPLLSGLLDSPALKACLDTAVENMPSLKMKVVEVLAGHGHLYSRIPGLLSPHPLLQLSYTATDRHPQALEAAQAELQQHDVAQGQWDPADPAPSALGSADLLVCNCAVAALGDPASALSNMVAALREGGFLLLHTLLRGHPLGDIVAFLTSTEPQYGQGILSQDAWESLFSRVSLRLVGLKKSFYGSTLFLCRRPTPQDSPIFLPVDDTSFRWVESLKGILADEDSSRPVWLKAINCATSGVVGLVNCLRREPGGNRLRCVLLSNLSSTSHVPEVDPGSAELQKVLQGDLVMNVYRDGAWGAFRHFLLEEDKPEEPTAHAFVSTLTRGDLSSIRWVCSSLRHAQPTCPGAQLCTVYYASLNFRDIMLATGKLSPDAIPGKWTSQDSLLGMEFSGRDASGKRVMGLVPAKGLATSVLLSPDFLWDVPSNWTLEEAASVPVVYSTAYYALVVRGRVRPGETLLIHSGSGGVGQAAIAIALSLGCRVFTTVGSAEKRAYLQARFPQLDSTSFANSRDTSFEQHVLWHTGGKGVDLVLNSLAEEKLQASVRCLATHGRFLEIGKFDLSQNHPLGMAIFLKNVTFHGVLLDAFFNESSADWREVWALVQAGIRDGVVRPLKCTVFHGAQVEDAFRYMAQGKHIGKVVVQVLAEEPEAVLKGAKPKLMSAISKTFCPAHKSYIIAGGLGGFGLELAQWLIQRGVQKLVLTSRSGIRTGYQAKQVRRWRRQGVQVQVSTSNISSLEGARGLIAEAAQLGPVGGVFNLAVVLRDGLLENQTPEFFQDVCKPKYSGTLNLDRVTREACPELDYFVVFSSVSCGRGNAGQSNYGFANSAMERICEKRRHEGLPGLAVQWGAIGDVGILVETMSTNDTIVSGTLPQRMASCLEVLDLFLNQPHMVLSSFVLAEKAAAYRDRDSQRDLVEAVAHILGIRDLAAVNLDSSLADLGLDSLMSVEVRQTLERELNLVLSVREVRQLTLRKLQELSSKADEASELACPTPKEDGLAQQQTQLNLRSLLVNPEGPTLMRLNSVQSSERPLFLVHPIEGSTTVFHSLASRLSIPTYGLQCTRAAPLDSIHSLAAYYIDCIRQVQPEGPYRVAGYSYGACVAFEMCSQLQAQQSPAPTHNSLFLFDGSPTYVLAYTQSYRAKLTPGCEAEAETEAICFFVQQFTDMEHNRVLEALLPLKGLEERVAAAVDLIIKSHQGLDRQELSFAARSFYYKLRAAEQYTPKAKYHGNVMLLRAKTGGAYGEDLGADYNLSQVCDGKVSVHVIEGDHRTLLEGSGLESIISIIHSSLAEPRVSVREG
Chain of Glucose-6-phosphate 1-dehydrogenase (P11413 whole entry): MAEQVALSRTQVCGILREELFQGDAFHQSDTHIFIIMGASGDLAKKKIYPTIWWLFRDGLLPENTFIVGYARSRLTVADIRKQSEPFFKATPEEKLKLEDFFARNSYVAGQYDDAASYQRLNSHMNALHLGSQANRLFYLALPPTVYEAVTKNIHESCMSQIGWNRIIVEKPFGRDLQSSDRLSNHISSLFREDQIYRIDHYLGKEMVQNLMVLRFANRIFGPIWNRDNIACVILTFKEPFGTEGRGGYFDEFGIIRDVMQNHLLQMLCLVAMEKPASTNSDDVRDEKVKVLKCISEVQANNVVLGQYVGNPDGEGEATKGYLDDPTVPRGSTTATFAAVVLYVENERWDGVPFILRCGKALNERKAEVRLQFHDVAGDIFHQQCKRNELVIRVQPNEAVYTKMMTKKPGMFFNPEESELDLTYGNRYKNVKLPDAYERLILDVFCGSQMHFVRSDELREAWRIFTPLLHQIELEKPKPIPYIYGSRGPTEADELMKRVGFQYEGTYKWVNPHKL
Chain of Nonstructural protein 1 (Q194T2 whole entry): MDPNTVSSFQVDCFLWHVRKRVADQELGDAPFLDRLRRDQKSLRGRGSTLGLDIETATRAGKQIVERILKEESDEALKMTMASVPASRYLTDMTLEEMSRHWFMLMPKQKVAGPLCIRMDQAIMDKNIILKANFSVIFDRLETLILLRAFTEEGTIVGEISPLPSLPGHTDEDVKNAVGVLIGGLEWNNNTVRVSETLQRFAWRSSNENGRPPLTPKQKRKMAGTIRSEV
Chain of DNA dC->dU-editing enzyme APOBEC-3G (Q9HC16 whole entry, the tested form may be a part): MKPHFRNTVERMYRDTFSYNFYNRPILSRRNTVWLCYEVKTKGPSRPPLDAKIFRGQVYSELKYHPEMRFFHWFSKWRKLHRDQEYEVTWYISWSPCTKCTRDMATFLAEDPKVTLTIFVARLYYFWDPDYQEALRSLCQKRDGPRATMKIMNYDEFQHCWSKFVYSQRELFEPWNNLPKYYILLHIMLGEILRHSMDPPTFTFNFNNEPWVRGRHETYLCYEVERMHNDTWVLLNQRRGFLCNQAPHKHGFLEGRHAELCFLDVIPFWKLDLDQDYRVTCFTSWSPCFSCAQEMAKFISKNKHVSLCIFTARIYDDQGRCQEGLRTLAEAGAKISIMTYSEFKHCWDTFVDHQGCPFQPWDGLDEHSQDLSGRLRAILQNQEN

SMILES: COc1ccc(Cn2c(-c3ccc(C)cc3)c[n+]3ccccc23)cc1
- AC50 [1]: 2.89 µM (active)
- AC50 (INS1): 4.52 µM (active)

SMILES: CCOc1ccccc1N(CC)C(=O)c1ccc2c(=O)n3c(nc2c1)CCCCC3
- IC50 (Fatty acid synthase [2]): 3.45 µM (active)
- IC50 (Fatty acid synthase [3]): 3.88 µM (active)

SMILES: CC(=O)N(Cc1ccc(F)cc1)C1=C(NCc2ccccc2)C(=O)c2ccccc2C1=O
- EC50 [4]: 0.708 µM (active)
- EC50 [5]: 8.2 µM (active)
- EC50 [6]: 8.34 µM (active)
- EC50 [7]: 0.317 µM (active)
- EC50 [8]: 0.54 µM (active)
- EC50 [9]: 4.92 µM (inconclusive)
- AC50 [10]: 5.17 µM (active)
- EC50 [11]: > 120 µM (not active)
- EC50 [12]: 7.47 µM (active)
- EC50 [13]: 0.444 µM (active)
- EC50 (Protein RecA): 0.776 µM (active)
- IC50 (Nonstructural protein 1): 35.3 µM (active)

SMILES: COC(=O)CCC(=O)Nc1sc(Cc2ccccc2)c(C)c1C(N)=O
- IC50 (cells [14]): 49 µM (active)
- IC50 [15]: > 80 µM (inactive)
- IC50 [16]: 31.1 µM (active)

SMILES: CC(C)c1nnc(NC(=O)c2cc3ccccc3o2)s1
- IC50 [15]: > 80 µM (inactive)

SMILES: COC(=O)[C@H](C)NC(=O)c1cc2c3ccccc3nc-2c[nH]1
- IC50 [15]: > 80 µM (inactive)
- IC50 [16]: 25.6 µM (active)

SMILES: C[C@@H]1CN([C@@H](C)CO)S(=O)(=O)c2ccc(-c3ccccc3)cc2O[C@H]1CN(C)S(C)(=O)=O
- AC50 [17]: 44 µM (active)

SMILES: O=C(COc1ccc(S(=O)(=O)N2CCCCC2)cc1)Nc1ccccc1F
- IC50 (Fatty acid synthase [2]): 17.2 µM (active)
- IC50 (Fatty acid synthase [3]): 16 µM (active)

SMILES: C/C=C/C=C/C(=O)OC(C)C(=O)Nc1cc([N+](=O)[O-])ccc1OC (configuration not stated)
- IC50 [18]: > 47.1 µM (inactive)
- IC50 (Fatty acid synthase [2]): 4.79 µM (active)
- IC50 (Fatty acid synthase [3]): 4.02 µM (active)
- EC50 [19]: > 53 µM (inactive)

SMILES: Nc1ncnc2c1ncn2C1C(O)C=C(CO)C1O (configuration not stated)
- GI50 (SN12K1): > 625 µM (inactive)

SMILES: Cc1ccc(-c2c(C(=O)N(C)Cc3ccccc3)oc(=O)c3ccccc23)cc1
- IC50 (Fatty acid synthase [2]): 12.3 µM (active)
- IC50 (Fatty acid synthase [3]): 11.6 µM (active)

SMILES: C=CCSC(=S)NC1CCS(=O)(=O)C1 (configuration not stated)
- AC50 [1]: 20.7 µM (active)
- CC50 [20]: 24.6 µM (active)

SMILES: COc1cccc2sc(N3CCN(C(=O)c4ccc([N+](=O)[O-])o4)CC3)nc12
- IC50 (cells [14]): < 0.1 µM (active)
- AC50 [1]: 7.03 µM (active)
- EC50 (cells [21]): > 350 µM (not active)
- CC50 [22]: 36.5 µM (active)
- CC50 [23]: 18.9 µM (active)
- EC50 (cells [24]): > 350 µM (not active)

SMILES: O=C(NN=Cc1c(O)ccc2ccccc12)c1ccncc1
- AC50 (Paired box protein Pax-8): 1.17 µM (active)
- IC50 (Nonstructural protein 1): 11.9 µM (active)
